Results from patent publication US20060013770A1, “Method for screening for compounds as potential sedatives or anxiolytics” (priority 2002, published 2006).

What was measured:
[1] = tested on: HPA axis; assay: Effect on plasma corticosterone (HPA axis activity) in mice, radioimmunoassay; type: in vivo, NMRI mice
[2] = tested on: HPA axis; assay: Time course of the effect on the HPA axis (plasma ACTH and corticosterone), FIG. 2; type: in vivo; details: 10 mg/kg
Protocol: One example of measuring the activity of the HPA axis is as follows: The animal Is treated with the NCE and sacrificed within an hour. As the release of ACTH occurs within an hour after the stimulation of the CRF neurons, animals are sacrificed at t=0, 5, 15, 30 and 60 minutes after administration. Trunk blood is taken, serum separated and levels of ACTH is measured in the serum by specific radioimmunoassay. Similarly, the level of glucocortcosteroids are determined at t=0, 30, 60, and 120 minutes (the response occurs somewhat later than ACTH) using a radioimmunoassay.

[3] = tested on: HPA axis; details: at the level of the hypothalamic CRF neurons; cited from earlier work
[4] = i.p., 60 minutes after administration

Q: What does the source list for `Cc1ccc(-c2nc3ccc(C)cn3c2CC(=O)N(C)C)cc1` [Zolpidem, zolpidem]?
A: effect on plasma corticosterone at 25 mg/kg compared with 12.5 mg/kg ([1]; i.p., 25 mg/kg, 60 minutes after administration): not further increased; dose at which the effect on plasma corticosterone reached a maximum [1, 4]: 12.5 mg/kg; doses from which plasma corticosterone is significantly increased [1, 4]: ≥ 0.5 mg/kg; effect on plasma corticosterone ([1]; i.p., 60 minutes after administration, increasing doses): significantly and dose-dependently increased plasma corticosterone; time course of plasma ACTH and corticosterone [2]: The rise in plasma ACTH precedes the rise in corticosterone

Q: For `CN1C(=O)CN=C(c2ccccc2)c2cc(Cl)ccc21` [Diazepam], which “effect on the HPA axis” value [3] is on record?
A: Its value is “slightly stimulate the HPA axis”.

Q: For `Cn1ncnc1COc1nn2c(-c3cc(F)ccc3F)nnc2cc1C(C)(C)C` [L-838,417], which “effect on plasma corticosterone” value ([1]; 12.5 mg/kg, 2 h after administration) is on record?
A: Its value is “no effects on plasma corticosterone was observed”.

Q: What about the effect on corticosterone ([1]; i.p., doses up to 12.5 mg/kg, 60 minutes after administration) of the same compound?
A: Its effect on corticosterone is “no effect”.
